Molecular target: T1, BA/F3-FLT3-ITD + D835Y (Homo sapiens, UniProt P36888, D835Y, cells depend on it, form not given)
T1 sequence (P36888 with tags, fused parts or gaps INS600HVDFREYEYD/D835Y): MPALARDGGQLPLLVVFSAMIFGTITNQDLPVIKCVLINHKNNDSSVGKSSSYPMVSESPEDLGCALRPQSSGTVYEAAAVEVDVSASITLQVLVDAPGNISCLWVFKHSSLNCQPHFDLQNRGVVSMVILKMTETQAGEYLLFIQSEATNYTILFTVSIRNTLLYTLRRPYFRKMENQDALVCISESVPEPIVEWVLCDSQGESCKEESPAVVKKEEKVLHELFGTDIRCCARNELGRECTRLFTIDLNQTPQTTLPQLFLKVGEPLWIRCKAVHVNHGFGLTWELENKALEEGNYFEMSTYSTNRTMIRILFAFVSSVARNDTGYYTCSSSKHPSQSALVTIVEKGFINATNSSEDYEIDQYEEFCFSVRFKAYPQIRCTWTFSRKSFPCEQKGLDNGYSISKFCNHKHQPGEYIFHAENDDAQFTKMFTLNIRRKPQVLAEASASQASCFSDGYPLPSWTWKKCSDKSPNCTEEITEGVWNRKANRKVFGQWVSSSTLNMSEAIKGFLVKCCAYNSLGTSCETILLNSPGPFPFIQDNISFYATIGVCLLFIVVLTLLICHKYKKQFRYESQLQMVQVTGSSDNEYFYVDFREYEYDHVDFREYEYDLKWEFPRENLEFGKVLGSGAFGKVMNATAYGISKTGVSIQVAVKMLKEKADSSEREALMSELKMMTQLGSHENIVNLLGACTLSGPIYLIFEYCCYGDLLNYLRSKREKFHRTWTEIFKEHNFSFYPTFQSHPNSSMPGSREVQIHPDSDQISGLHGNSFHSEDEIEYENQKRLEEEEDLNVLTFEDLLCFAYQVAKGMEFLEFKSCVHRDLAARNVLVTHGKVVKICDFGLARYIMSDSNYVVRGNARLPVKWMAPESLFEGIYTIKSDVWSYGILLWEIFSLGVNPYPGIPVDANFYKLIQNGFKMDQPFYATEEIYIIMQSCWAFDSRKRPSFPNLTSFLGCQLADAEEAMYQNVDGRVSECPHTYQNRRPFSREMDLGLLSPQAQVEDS
Experiment: Engineered BA/F3 cell growth assay, FLT3 ITD/D835Y
Format: cell-based, murine
Details: 3 d growth
In short: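 IC50 derived from CellTiter-Glo ATP luminescence after 3 days at 37 °C, 5% CO2, over eight 1:3 dilutions from 1 μM (0.2% DMSO final). Cells: IL-3-independent murine Ba/F3 expressing full-length FLT3 ITD/D835Y, 1×10^4 per well.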

Row | GI50 [µM] | SMILES
1 | 0.0001 to 10 | COCCn1cc(Nc2ncc(-c3ccc(CC(=O)Nc4cnc(OC)c(C(F)(F)F)c4)cc3)cn2)cn1 [Compound P-0271, 2-[4-[2-[[1-(2-methoxyethyl)pyrazol-4-yl]amino]pyrimidin-5-yl]phenyl]-N-[6-methoxy-5-(trifluoromethyl)-3-pyridyl]acetamide]
2 | 0.0001 to 10 | COCCn1cc(Nc2ncc(-c3ccc(CC(=O)Nc4ccc(C(F)(F)F)nc4)cc3)cn2)cn1 [Compound P-0273, 2-[4-[2-[[1-(2-methoxyethyl)pyrazol-4-yl]amino]pyrimidin-5-yl]phenyl]-N-[6-(trifluoromethyl)-3-pyridyl]acetamide]
3 | 0.0001 to 10 | COCCn1cc(Nc2ncc(-c3ccc(CC(=O)Nc4ccc(C(F)(F)F)cn4)cc3)cn2)cn1 [Compound P-0274, 2-[4-[2-[[1-(2-methoxyethyl)pyrazol-4-yl]amino]pyrimidin-5-yl]phenyl]-N-[5-(trifluoromethyl)-2-pyridyl]acetamide]

From patent publication US10160747B2, “Compounds and methods for kinase modulation, and indications therefor” (Plexxikon Inc., priority 2016, dated 2018)
